Key:
[1] = test system: other LOX isozymes (h5-LOX, h15-LOX-1, h15-LOX-2); assay: Inhibitor selectivity against other LOX isozymes; type: biochemical, human
Source text: The wild type 12-LOX (wt-12-LOX) enzyme and its mutants were expressed as fusion proteins, with an N-terminal 6×His tag, and were affinity purified by nickel-iminodiacetic acid agarose using FPLC (Biorad). For inhibitor selectivity, human 5-LOX (h5-LOX, UniProt entry P09917), human reticulocyte 15-LOX-1 (h15-LOX-1, UniProt entry P16050) and human epithelial 15-LOX-2 (h15-LOX-2, UniProt entry 015296) were also isolated. The purity of all the proteins, except h5-LOX, was greater than 90% as determined by SDS-PAGE analysis. h5-LOX was an ammonium sulfate fraction due to the extensive loss of activity upon purification.
IC50 values of ML355 against 12-LOX and its mutants were determined in a similar manner as the steady state kinetic values. The percent inhibition was determined by comparing the enzyme rates of the control (DMSO solvent) and the inhibitor sample by following the formation of the conjugated diene product at 234 nm (ε=25,000 M^−1cm^−1). The reactions were initiated by adding 200 nM 15-LOX-2, 30 nM 12-LOX, 40 nM 15-LOX-1, or approximately 100-300 nM (total protein) of 5-LOX ammonium sulfate fraction to a cuvette with 2 mL reaction buffer, constantly stirred using a magnetic stir bar at room temperature (22° C.). […] The substrate concentration was quantitatively determined by allowing the enzymatic reaction to go to completion in the presence of soybean LOX-1. […]

12-LOX mutant F352L = biological target: T1, 12-LOX mutant F352L (Homo sapiens, UniProt P18054, F352L); assay: UV-Vis-based IC50 assay, F352L mutant; type: biochemical
T1 construct: 6xHis (N); made in house; pFastBac1 shuttle vector
T1 sequence (P18054 1-663 F352L): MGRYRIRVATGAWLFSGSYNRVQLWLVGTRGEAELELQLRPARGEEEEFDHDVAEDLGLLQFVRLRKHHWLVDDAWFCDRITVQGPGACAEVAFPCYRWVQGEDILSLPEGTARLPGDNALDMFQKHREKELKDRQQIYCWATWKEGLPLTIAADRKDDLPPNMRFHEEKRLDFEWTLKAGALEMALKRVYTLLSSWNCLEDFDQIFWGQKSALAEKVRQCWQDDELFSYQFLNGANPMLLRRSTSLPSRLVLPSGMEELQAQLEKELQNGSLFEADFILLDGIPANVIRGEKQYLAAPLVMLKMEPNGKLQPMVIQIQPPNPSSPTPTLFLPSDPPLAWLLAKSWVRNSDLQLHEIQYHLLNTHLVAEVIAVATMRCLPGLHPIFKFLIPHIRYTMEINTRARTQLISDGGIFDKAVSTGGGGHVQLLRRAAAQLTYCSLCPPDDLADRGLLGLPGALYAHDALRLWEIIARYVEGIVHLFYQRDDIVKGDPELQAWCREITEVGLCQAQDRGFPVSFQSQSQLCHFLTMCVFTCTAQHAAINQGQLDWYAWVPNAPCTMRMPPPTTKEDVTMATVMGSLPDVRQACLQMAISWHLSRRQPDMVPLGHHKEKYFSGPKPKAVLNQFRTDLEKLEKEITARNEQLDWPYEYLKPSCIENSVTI
Source text: Based on the ML355 binding mode predicted by the modeling, all residues within 5 Å of any atom of ML355 were selected for experimental mutagenesis. The selected residues were replaced with amino acids with either bulkier or smaller side chains in order to determine what specific interactions play a role in inhibitor binding. […] The numbering refers to the UniProt accession number P18054 sequence, with the N-terminal methionine assigned as amino acid number one. The primers for all mutants were designed using the online QuikChange Primer Design tool (http://www.genomics.agilent.com/primerDesignProgram.jsp) from Agilent Technologies (CA, USA). The mutations were introduced by using the QuikChange® II XL site-directed mutagenesis kit from Agilent, following the instructions in the protocol provided. […]
The wild type 12-LOX (wt-12-LOX) enzyme and its mutants were expressed as fusion proteins, with an N-terminal 6×His tag, and were affinity purified by nickel-iminodiacetic acid agarose using FPLC (Biorad).
The percent inhibition was determined by comparing the enzyme rates of the control (DMSO solvent) and the inhibitor sample by following the formation of the conjugated diene product at 234 nm (ε=25,000 M^−1cm^−1). […] The substrate concentration was quantitatively determined by allowing the enzymatic reaction to go to completion in the presence of soybean LOX-1. […]

SMILES: COc1cccc(CNc2ccc(S(=O)(=O)Nc3nc4c(ccc5ccccc54)s3)cc2)c1O [Compound LOX-12-001, 4-((2-hydroxy-3-methoxybenzyl)amino)-N-(naphtho[1,2-d]thiazol-2-yl)benzenesulfonamide]
- selectivity against other LOX isozymes [1]: maintained
- IC50 (12-LOX mutant F352L; F352L): 490 ± 50 nM
- fold increase in IC50 compared to wt12-LOX (12-LOX mutant F352L; F352L vs wt12-LOX): 9.8 fold

From patent US20240279190A1, “COMPOUNDS FOR MODULATING PLATELET-TYPE 12-(S)-LIPOXYGENASE AND METHODS OF USE FOR SAME” (The Regents of The University of California, priority 2021, published 2024)
